Test results taken from PubChem BioAssay AID248 (DTP/NCI, 2004).
Where “and” joins values, the source holds several entries; their conditions need not be identical. Equal values may be shown once. Toxic doses and inconclusive results are not listed. Square brackets hold non-standard residues; d marks the D form. Peptide text beside a SMILES is read from it. ξ: configuration not given here. ξD = NC(CC(=O)O)C(=O)O

Tested on: L1210 leukemia ip in BDF1 mice, survival T/C
Experiment: NCI In Vivo Anticancer Drug Screen. Data for tumor model L1210 Leukemia (intraperitoneal) in B6D2F1 (BDF1) mice
Conditions: endpoint: mean survival time, higher = longer survival
Method in brief: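 Transplantable tumor model; survival measured in treated vs vehicle control mice. Value = treated/control.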

[1] = dose: 100.0 mg/kg/injection, schedule: Q04DX003 (ip), vehicle: saline
[2] = dose: 200.0 mg/kg/injection, schedule: Q04DX003 (ip), vehicle: saline
[3] = dose: 400.0 mg/kg/injection, schedule: Q04DX003 (ip), vehicle: saline
[4] = dose: 100.0 mg/kg/injection, schedule: Q01DX009 (ip), vehicle: saline
[5] = dose: 100.0 mg/kg/injection, schedule: Q04DX003 (ip), vehicle: saline with Tween-80
[6] = dose: 200.0 mg/kg/injection, schedule: Q04DX003 (ip), vehicle: saline with Tween-80
[7] = dose: 100.0 mg/kg/injection, schedule: Q04DX003 (ip), vehicle: Klucel (hydroxypropylcellulose) (HPC)
[8] = dose: 200.0 mg/kg/injection, schedule: Q04DX003 (ip), vehicle: Klucel (hydroxypropylcellulose) (HPC)
[9] = dose: 400.0 mg/kg/injection, schedule: Q04DX003 (ip), vehicle: Klucel (hydroxypropylcellulose) (HPC)
[10] = dose: 100.0 mg/kg/injection, schedule: Q01DX001 (ip), vehicle: saline
[11] = dose: 200.0 mg/kg/injection, schedule: Q01DX001 (ip), vehicle: saline
[12] = dose: 400.0 mg/kg/injection, schedule: Q01DX001 (ip), vehicle: saline
[13] = dose: 100.0 mg/kg/injection, schedule: Q01DX001 (ip), vehicle: Klucel (hydroxypropylcellulose) (HPC)
[14] = dose: 100.0 mg/kg/injection, schedule: Q01DX001 (ip), vehicle: carboxymethylcellulose (CMC)
[15] = dose: 200.0 mg/kg/injection, schedule: Q01DX001 (ip), vehicle: carboxymethylcellulose (CMC)
[16] = dose: 400.0 mg/kg/injection, schedule: Q01DX001 (ip), vehicle: carboxymethylcellulose (CMC)
[17] = dose: 100.0 mg/kg/injection, schedule: Q01DX009 (ip), vehicle: Klucel (hydroxypropylcellulose) (HPC)
[18] = dose: 200.0 mg/kg/injection, schedule: Q01DX009 (ip), vehicle: Klucel (hydroxypropylcellulose) (HPC)
[19] = dose: 400.0 mg/kg/injection, schedule: Q01DX009 (ip), vehicle: Klucel (hydroxypropylcellulose) (HPC)
[20] = dose: 100.0 mg/kg/injection, schedule: Q01DX009 (ip), vehicle: saline with Tween-80
[21] = dose: 200.0 mg/kg/injection, schedule: Q01DX009 (ip), vehicle: saline with Tween-80
[22] = dose: 50.0 mg/kg/injection, schedule: Q01DX009 (ip), vehicle: saline

O=C(Nc1ccc(N=C(c2ccccc2)N2CCOCC2)cc1)c1ccc(C(=O)Nc2ccc(N=C(c3ccccc3)N3CCOCC3)cc2)cc1
T/C (dose: 62.0 mg/kg/injection, schedule: Q01DX Z (ip), vehicle: carboxymethylcellulose (CMC)): 92 % of control
T/C (dose: 125.0 mg/kg/injection, schedule: Q01DX Z (ip), vehicle: carboxymethylcellulose (CMC)): 86 % of control
T/C (dose: 250.0 mg/kg/injection, schedule: Q01DX Z (ip), vehicle: carboxymethylcellulose (CMC)): 91 % of control

Cc1ccc(S(=O)(=O)NC(=O)NC2CCCCC2)cc1
T/C [1]: 88 % of control
T/C [2]: 93 % of control
T/C [3]: 104 % of control

Nc1ccccc1CCCC(=O)O
T/C [4]: 95 % of control
T/C [1]: 104 % of control
T/C (dose: 200.0 mg/kg/injection, schedule: Q01DX009 (ip), vehicle: saline): 90 % of control
T/C [2]: 98 % of control
T/C (dose: 400.0 mg/kg/injection, schedule: Q01DX009 (ip), vehicle: saline): 105 % of control
T/C [3]: 93 % of control

O=C(O)c1cn(C2CCCCC2)c(=O)[nH]c1=O
T/C (dose: 25.0 mg/kg/injection, schedule: Q01DX Z (ip), vehicle: methylcellulose (MC)): 107 % of control
T/C (dose: 50.0 mg/kg/injection, schedule: Q01DX Z (ip), vehicle: methylcellulose (MC)): 91 % of control

COc1cc(C=Nc2cc(Br)c(O)c(Br)c2)ccc1N(CCCl)CCCl
T/C (dose: 6.4 mg/kg/injection, schedule: Q01DX009 (ip), vehicle: carboxymethylcellulose (CMC)): 101 % of control
T/C (dose: 9.8 mg/kg/injection, schedule: Q01DX001 (ip), vehicle: carboxymethylcellulose (CMC)): 104 % of control
T/C (dose: 14.6 mg/kg/injection, schedule: Q01DX009 (ip), vehicle: carboxymethylcellulose (CMC)): 103 % of control and 111 % of control
T/C (dose: 22.0 mg/kg/injection, schedule: Q01DX001 (ip), vehicle: carboxymethylcellulose (CMC)): 177 % of control
T/C (dose: 22.0 mg/kg/injection, schedule: Q01DX009 (ip), vehicle: carboxymethylcellulose (CMC)): 94 % of control
T/C (dose: 25.0 mg/kg/injection, schedule: Q01DX001 (ip), vehicle: carboxymethylcellulose (CMC)): 153 % of control
T/C (dose: 50.0 mg/kg/injection, schedule: Q01DX001 (ip), vehicle: carboxymethylcellulose (CMC)): 161 % of control

O=C1CC(=O)NC(=O)N1
T/C [5]: 91 % of control
T/C [6]: 93 % of control
T/C (dose: 400.0 mg/kg/injection, schedule: Q04DX003 (ip), vehicle: saline with Tween-80): 91 % of control

[O-][N+]1(c2ccc(Cl)cc2)CC[N+]([O-])(c2ccc(Cl)cc2)CC1 (stereo not drawn)
T/C [7]: 96 % of control
T/C [8]: 94 % of control
T/C [9]: 100 % of control

Cc1c(Cl)nc(Cl)nc1Cl
T/C (dose: 8.0 mg/kg/injection, schedule: Q01DX015 (ip), vehicle: carboxymethylcellulose (CMC)): 104 % of control
T/C (dose: 16.0 mg/kg/injection, schedule: Q01DX015 (ip), vehicle: carboxymethylcellulose (CMC)): 98 % of control
T/C (dose: 32.0 mg/kg/injection, schedule: Q01DX015 (ip), vehicle: carboxymethylcellulose (CMC)): 96 % of control
T/C (dose: 50.0 mg/kg/injection, schedule: Q01DX001 (ip), vehicle: saline): 101 % of control
T/C (dose: 64.0 mg/kg/injection, schedule: Q01DX015 (ip), vehicle: carboxymethylcellulose (CMC)): 106 % of control
T/C (dose: 75.0 mg/kg/injection, schedule: Q01DX015 (ip), vehicle: carboxymethylcellulose (CMC)): 98 % of control
T/C [10]: 101 % of control
T/C (dose: 150.0 mg/kg/injection, schedule: Q01DX015 (ip), vehicle: carboxymethylcellulose (CMC)): 91 % of control
T/C [11]: 104 % of control
T/C [12]: 104 % of control

O=[N+]([O-])c1cccc(S(=O)(=O)SC(Cl)(Cl)Cl)c1
T/C (dose: 25.0 mg/kg/injection, schedule: Q04DX003 (ip), vehicle: saline): 96 % of control

O=C(OC1CC=CCC1)c1ccc([N+](=O)[O-])cc1 (stereo not drawn)
T/C [13]: 86 % of control
T/C (dose: 200.0 mg/kg/injection, schedule: Q01DX001 (ip), vehicle: Klucel (hydroxypropylcellulose) (HPC)): 98 % of control
T/C (dose: 400.0 mg/kg/injection, schedule: Q01DX001 (ip), vehicle: Klucel (hydroxypropylcellulose) (HPC)): 96 % of control

CC(=O)Nc1c(Cl)c(Cl)c2c(c1Cl)C(O)c1cc(Cl)ccc1-2 (stereo not drawn)
T/C [14]: 103 % of control
T/C [15]: 97 % of control
T/C [16]: 114 % of control

Cc1cc(C(=O)C(=O)O)c(CN2C(=O)c3ccccc3C2=O)c(=O)n1C
T/C (dose: 100.0 mg/kg/injection, schedule: Q01DX001 (ip), vehicle: saline with Tween-80): 97 % of control
T/C (dose: 200.0 mg/kg/injection, schedule: Q01DX001 (ip), vehicle: saline with Tween-80): 107 % of control
T/C (dose: 400.0 mg/kg/injection, schedule: Q01DX001 (ip), vehicle: saline with Tween-80): 97 % of control

CS(=O)(=O)Oc1ccccc1OS(C)(=O)=O
T/C (dose: 100.0 mg/kg/injection, schedule: Q04DX002 (ip), vehicle: saline with Tween-80): 91 % of control
T/C (dose: 200.0 mg/kg/injection, schedule: Q04DX002 (ip), vehicle: saline with Tween-80): 107 % of control

COc1cc(OC)c([N+](=O)[O-])cc1Cl
T/C [17]: 96 % of control
T/C [7]: 96 % of control
T/C [18]: 96 % of control
T/C [8]: 93 % of control
T/C [19]: 92 % of control
T/C [9]: 94 % of control

COc1ccc(CCN2C(=O)C=CC2=O)cc1OC
T/C (dose: 5.0 mg/kg/injection, schedule: Q04DX003 (ip), vehicle: saline): 97 % of control
T/C (dose: 10.0 mg/kg/injection, schedule: Q04DX003 (ip), vehicle: saline): 96 % of control
T/C (dose: 20.0 mg/kg/injection, schedule: Q04DX003 (ip), vehicle: saline): 100 % of control

CC(Br)C(=O)NCC(=O)O (stereo not drawn)
T/C [20]: 93 % of control
T/C [21]: 92 % of control

CC1OCOC2COCOC2C1O (stereo not drawn)
T/C [17]: 92 % of control
T/C [18]: 94 % of control
T/C [19]: 97 % of control

CCOC(=O)C1=CN=NC1=[N+]=[N-]
T/C (dose: 10.0 mg/kg/injection, schedule: Q01DX001 (ip), vehicle: saline): 96 % of control
T/C (dose: 20.0 mg/kg/injection, schedule: Q01DX001 (ip), vehicle: saline): 102 % of control

N=C1c2ccccc2-c2ccccc21
T/C [5]: 96 % of control
T/C [6]: 88 % of control

C=C1CC(C)(c2ccccn2)OC1=O (stereo not drawn)
T/C (dose: 6.25 mg/kg/injection, schedule: Q04DX002 (ip), vehicle: Klucel (hydroxypropylcellulose) (HPC)): 94 % of control
T/C (dose: 12.5 mg/kg/injection, schedule: Q04DX002 (ip), vehicle: Klucel (hydroxypropylcellulose) (HPC)): 102 % of control
T/C (dose: 25.0 mg/kg/injection, schedule: Q01DX001 (ip), vehicle: Klucel (hydroxypropylcellulose) (HPC)): 120 % of control
T/C (dose: 25.0 mg/kg/injection, schedule: Q04DX002 (ip), vehicle: Klucel (hydroxypropylcellulose) (HPC)): 110 % of control
T/C [13]: 98 % of control

CC(=O)OC1CCCCCCCCC1OC(C)=O (stereo not drawn)
T/C [14]: 103 % of control
T/C [15]: 98 % of control
T/C [16]: 95 % of control

NCC(=O)NC(CC(=O)O)C(=O)O (stereo not drawn) (H-Gly-[ξD]-OH)
T/C [10]: 97 % of control
T/C [11]: 104 % of control
T/C [12]: 97 % of control

C=CN1C(=O)NC(C)(CC(C)C)C1=O (stereo not drawn)
T/C [20]: 104 % of control
T/C [21]: 91 % of control
T/C (dose: 400.0 mg/kg/injection, schedule: Q01DX009 (ip), vehicle: saline with Tween-80): 92 % of control

CCOC(=O)c1nnc(SC)nc1SC
T/C (dose: 75.0 mg/kg/injection, schedule: Q01DX001 (ip), vehicle: alcohol): 100 % of control
T/C (dose: 150.0 mg/kg/injection, schedule: Q01DX001 (ip), vehicle: alcohol): 108 % of control

CCN(C1CCCCC1)C1CCCCC1
T/C (dose: 25.0 mg/kg/injection, schedule: Q01DX009 (ip), vehicle: saline): 100 % of control
T/C [22]: 98 % of control
T/C [4]: 107 % of control

Nc1ccn(C2OC(CO)C(O)C2OP(=O)(O)OCC2OC(n3ccc(=O)[nH]c3=O)CC2O)c(=O)n1 (stereo not drawn)
T/C [22]: 153 % of control
T/C [4]: 166 % of control
